Measured values taken from patent publication US20130337564A1, “Treatment of Pluripotent Cells” (Janssen Biotech, Inc., priority 2012, published 2013).

Columns and labels:
Format in all cases: cell-based
[1] = tested on: Sox17 expression in human embryonic stem cells (H9 line); assay: High content screening assay: Sox17 protein expression (differentiation); conditions: for fold induction at 10 µM: Homo sapiens, Embryonic stem cell, 10 μM test compound with 100 ng/ml activin A on days 1-2, H9, total intensity by IN Cell Analyzer, strong and moderate hits, read-out: SOX17 Expression, Fold over Wnt 3a/AA control
Outline: (§1)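 H9 hESCs on MATRIGEL treated days 1-2 with 10 μM compound in DMEM:F12, 0.5% FCS, 100 ng/ml activin A; days 3-4 with 2% FCS plus activin A without compound. Fixed cells immunostained for Sox17 or HNF-3beta with Draq5 nuclear counterstain. Cell number and staining intensity quantified by high-content imaging, 12 fields/well.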

[2] = tested on: cells expressing pluripotency markers derived from human embryonic stem cells; assay: MTS viability (toxicity) assay of cells expressing pluripotency markers; design: Raw data (duplicate), first replicate / Average: unit not given here; conditions: for viability at 10 µM: Homo sapiens, Embryonic stem cell, viability of cells expressing pluripotency markers, relative to control; for Raw data (duplicate), first replicate / Raw data (duplicate), second replicate: MTS viability assay raw reading; for Raw data (duplicate), first replicate: replicate 1; for Raw data (duplicate), second replicate: replicate 2; for Average: average of duplicate MTS raw readings; for Average of raw data (duplicate), optical density at 490 nm: MTS on day 4
Outline: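 A GSK-3B inhibitor library was screened for toxicity to pluripotency-marker-expressing cells. Compound was given in DMEM:F12 with 0.5% FCS and 100 ng/ml Activin A for two days, then replaced by medium with 2% FCS and Activin A. On day 4, MTS absorbance at 490 nm gave viability as percent of Activin A plus Wnt3a control wells.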

[3] = tested on: human embryonic stem cells (H9 line); assay: High content screening assay: cell number (proliferative response); conditions: for fold induction at 10 µM: Homo sapiens, Embryonic stem cell, 10 μM test compound with 100 ng/ml activin A on days 1-2, H9, total cell number by IN Cell Analyzer, strong and moderate hits, read-out: Proliferative Response, Fold over Wnt 3a/AA control
Outline: as §1

[4] = cell number in the wells analysed for HNF-3b expression
[5] = cell number in the wells analysed for SOX-17 expression

Compound	fold induction at 10 µM [1]	SOX-17 Expression Total Intensity [1]	viability at 10 µM [2] [%]	Raw data (duplicate), first replicate [2]	Raw data (duplicate), second replicate [2]	Average [2]	Average of raw data (duplicate), optical density at 490 nm ([2]; cmpd conc 2.5 μM)	Average of raw data (duplicate), optical density at 490 nm ([2]; cmpd conc 5 μM)	Average of raw data (duplicate), optical density at 490 nm ([2]; cmpd conc 10 μM)	fold induction at 10 µM [3]	Proliferative Response Total cells [3, 4]	Proliferative Response Total cells [3, 5]
O=C1NC(=O)C(c2nn(CCO)c3ccccc23)=C1c1cn(-c2cncnc2)c2ccccc12 [Compound 226, 3-[1-(2-Hydroxyethyl)-1H-indazol-3-yl]-4-(1-pyrimidin-5-yl-1H-indol-3-yl)-1H-pyrrole-2,5-dione]	0.589	572520000	83.1	0.683	0.688	0.686	0.7474	0.7506	0.6945	0.634	7650	9716
O=C1NC(=O)C(c2cn(-c3cncnc3)c3ccccc23)=C1c1cn(CCO)c2ccccc12 [Compound 230, 3-[1-(2-Hydroxyethyl)-1H-indol-3-yl]-4-(1-pyrimidin-5-yl-1H-indol-3-yl)-1H-pyrrole-2,5-dione]	1.14	1104750000	81.8	0.680	0.663	0.671				1.31	16884	20079
Cn1cc(C2=C(c3nn(CCCn4ccnc4)c4ccccc34)C(=O)NC2=O)c2cc(Cl)ccc21 [Compound 231, 3-(5-Chloro-1-methyl-1H-indol-3-yl)-4-{1-[3-(1H-imidazol-1-yl)propyl]-1H-indazol-3-yl}-1H-pyrrole-2,5-dione]	0.811	789085000	76.7	0.640	0.636	0.638				0.9	11369	13789
Cn1cc(C2=C(c3nn(CCCn4ccnn4)c4ccccc34)C(=O)NC2=O)c2cc(Cl)ccc21 [Compound 232, 3-(5-Chloro-1-methyl-1H-indol-3-yl)-4-{1-[3-(1H-1,2,3-triazol-1-yl)propyl]-1H-indazol-3-yl}-1H-pyrrole-2,5-dione]	1.07	1045395000	87.3	0.720	0.697	0.709				1.09	14950	16652
O=C1NC(=O)C2=C1Nc1cccc(c1)OCCC/C=C\CCCOc1cccc2c1 [Compound 233, (11Z)-8,9,10,13,14,15-Hexahydro-2,6:17,21-di(metheno)pyrrolo[3,4-h][1,15,7]dioxazacyclotricosine-22,24(1H,23H)-dione]		327055000	70.9	0.608	0.590	0.599	0.4267	0.1283	0.1391		4357	6470
